This is an account of results in patent US10034475B2, “Treated biodiesel glycerin” (Auburn University, priority 2007, dated 2018).

SMILES strings stand for the structures.

Test [1] concerns reniform nematode Rotylenchulus reniformis. The test is described as follows: Greenhouse pot test, soil drench, reniform nematode population in soil. The class given is in vivo. The following applies: 1 Kg infested soil per pot, drench in 100 mls; urea alone 150 mgs/Kg soil; NBG 1-5 mls/kg soil without urea. On the procedure:
The effect of neutralized bioglycerin (NBG), either in the presence or absence of organic nitrogen, was tested on the growth of cotton plants and parasitic nematodes. Neutralized bioglycerin (NBG) was applied at rates of 0, 1, 2, 3, 4, and 5 mls/kg soil either with or without urea (150 mgs/Kg soil of the compound to achieve about 70 mgs N/Kg soil). Applications were performed by drenching the soil in aqueous solution so that the final application volume per pot was 100 mls (which is equivalent to an acre inch of irrigation). Each pot contained 1 Kg of soil infested with the reniform nematode Rotylenchulus reniformis and there were 7 replications (pots)/treatment. Thus, for example, for the 1 ml NBG application there were 14 pots, 7 of which received each water up to 100 mls containing 1 ml NBG; the other 7 pots received each 1 ml NBG+150 mgs urea mixed in a final volume of 100 mls. The carbon:nitrogen ratios (C/N) of the combined treatments ranged from about 5.6 for the 1 ml NBG treatment to 28 for the 5 mls NBG treatment.

In a further test the test system is fungi. The following applies: greenhouse and field experiments; cited from earlier work.
The test system of another test is nematodes. Particulars: greenhouse and field experiments; cited from earlier work.

As for `NC(N)=O` [Urea, urea], the “effect on reniform nematode numbers” value in test [1] is “suppressed”.
`C=CC=O` [acrolein, 2-propenal]: the fungicidal activity entry with fungi is “fungicidal”. The nematocidal activity entry in the test on nematodes is recorded as “nematocidal”.
